Patent US11931339B2, “Compositions and methods for treating tissue injury” (CASE WESTERN RESERVE UNIVERSITY, priority 2018, dated 2024)

How the values were obtained:
[1] = target: T1, PKM2-C423/424A in HEK cells (Homo sapiens, UniProt P14618, C423A/C424A); test: Activity of Myc-PKM2-C423/424A after NO (DETA-NO) treatment in HEK cells; assay type: cell-based; conditions: 500 μM DETA-NO for 20 hr; FIG. 11b
T1 construct: host or cells: HEK cells (endogenous PKM2 depleted by siRNA against the 3' UTR)
Experimental: (§1) HEK cell transfection was described herein. siRNA-mediated protein depletion was used in HEK cells. Two custom PKM2 siRNAs that target the 3′ UTR of PKM2 were obtained from Dharmacon. siRNA oligonucleotides (60 pmol/10 cm plate) were transfected into HEK cells using Lipofectamine RNAiMAX (Invitrogen) according to the manufacturer's protocol. After 24 hours, 5 μg pCMV-control, pCMV-PKM2-WT or pCMV-PKM2-C423A/424A were co-transfected with siRNA oligonucleotides (60 pmol/10 cm plate) into HEK cells using Lipofectamine 2000. After 24 hrs, cells were treated with 500 μM DETA-NO for 20 hr. Cells were then collected for assay.
PKM activity was measured based on generation of pyruvate, which was oxidized by pyruvate oxidase to produce color (k=570 nm). To measure PKM2 activity in vitro, 250 ng recombinant PKM2-WT and PKM2-C423A/424A proteins were pre-incubated with substrate 2 μl fructose-1,6-bisphosphate (FBP)(250 μM) in 2 ml dialysis buffer [20 mM Tris-HCL (pH 7.9), 20% (v/v) glycerol, 0.1 M KCL, 0.2 mM EDTA], followed by dialysis to remove the free FBP in 2 L dialysis buffer. After 10 ng PKM2-FBP complex was treated with 200-300 μM SNO-CoA for 10 min at room temperature, the activity of PKM2 was measured. […] Extracts were clarified by centrifugation (20,000 g, 4° C., 20 min, ×2), and protein concentration was determined by bicinchoninic acid assay. […]

[2] = test system: Myc-PKM2-WT and Myc-PKM2-C423/424A expressing HEK cells; test: PEP accumulation in PKM2-expressing HEK cells after NO treatment; assay type: cell-based; conditions: HEK cells with endogenous PKM2 knocked down; 500 μM DETANO; FIG. 3h
Experimental: as §1
(§2) The amount of pyruvate was measured using Pyruvate Assay Kit (Sigma). Kidneys harvested from SCoR^+/+, SCoR^−/−, PKM2^+/+ or PKM2^−/− mice (sham operation or AKI) were mechanically homogenized in Pyruvate Assay Buffer (1 mg/5 μl buffer). After extracts were clarified by centrifugation (20,000 g, 4° C., 20 min, ×2), supernatant was used for assay. GHB in the serum of SCoR^+/+ and SCoR^−/− mice was measured following the GHB enzymatic assay kit from BUHLMANN. […] The amount of PEP, 6PG, ATP, ADP and serine were respectively measured using PEP Colorimetric/Fluorometric Assay Kit (Sigma), 6 phosphogluconate Assay kit (abeam), ATP Colorimetric/Fluorometric Assay Kit (Sigma), ADP Colorimetric/Fluorometric Assay Kit (Sigma) and DL-Serine Assay kit (Fluorometric) (Biovision).

[3] = test system: Myc-PKM2-WT and Myc-PKM2-C423/424A HEK cells; test: ADP/ATP ratio in PKM2-expressing HEK cells under NO treatment; assay type: cell-based; conditions: HEK cells under NO treatment (DETANO 500 μM); FIG. 12
Experimental: as §1, §2

[4] = test system: Myc-PKM2-WT and Myc-PKM2-C423/424A expressing HEK cells; test: 6-phosphogluconate accumulation in PKM2-expressing HEK cells after NO treatment; assay type: cell-based; conditions: DETANO 500 μM, FIG. 11d
Experimental: as §1, §2

recombinant PKM2 = target: T2, recombinant PKM2 (Homo sapiens, UniProt P14618); test: PKM activity of recombinant PKM2 after SNO-CoA treatment; assay type: biochemical; conditions: PKM2-FBP complex, 200-300 μM SNO-CoA for 10 min at room temperature; FIG. 3d
T2 construct: 6xHis (C); made in house; host or cells: E. coli BL21-CodonPlus
Experimental: PKM activity was measured based on generation of pyruvate, which was oxidized by pyruvate oxidase to produce color (k=570 nm). To measure PKM2 activity in vitro, 250 ng recombinant PKM2-WT and PKM2-C423A/424A proteins were pre-incubated with substrate 2 μl fructose-1,6-bisphosphate (FBP)(250 μM) in 2 ml dialysis buffer [20 mM Tris-HCL (pH 7.9), 20% (v/v) glycerol, 0.1 M KCL, 0.2 mM EDTA], followed by dialysis to remove the free FBP in 2 L dialysis buffer. After 10 ng PKM2-FBP complex was treated with 200-300 μM SNO-CoA for 10 min at room temperature, the activity of PKM2 was measured. To measure PKM2 activity in kidney, kidneys were mechanically homogenized in lysis buffer [50 mM phosphate buffer, pH 7.0, 150 mM NaCl, 0.1 mM EDTA, 0.1 mM DTPA, 1 mM PMSF, and protease inhibitor mixture (Roche)]. Extracts were clarified by centrifugation (20,000 g, 4° C., 20 min, ×2), and protein concentration was determined by bicinchoninic acid assay. 10 μl (0.1 μg/μl) lysate was used to measure PKM2 activity. Assay of PKM2 activity was followed the protocol of Pyruvate Kinase Activity Colorimetric/Fluorometric Assay Kit from Biovison In.

[5] = target: T3, recombinant PKM2-C423/424A (Homo sapiens, UniProt P14618, C423A/C424A); test: Activity of recombinant PKM2-C423/424A after SNO-CoA treatment; assay type: biochemical; conditions: in vitro, 200-300 μM SNO-CoA for 10 min; FIG. 3f
T3 construct: 6xHis (C); made in house; host or cells: E. coli BL21-CodonPlus
Description: The mammalian cell expression plasmid pCMV-PKM2 was obtained from Origene. Mammalian cell expression plasmid pcDNA-SCoR was constructed by PCR-cloning. pCMV-PKM2 cysteine mutants were generated by QuikChange II Site-Directed Mutagenesis Kit (Agilent). For purification of recombinant PKM2, cDNA encoding PKM2-WT or PKM2-C423A/424A were cloned into pET21b (Novagen) to introduce a C-terminal 6×His tag on the expressed protein. The recombinant PKM2 proteins were purified from BL21-CodonPlus Competent E. coli Cells (Agilent). Overnight E. coli cultures were sub-cultured into 1 L of LB medium at 5%. At OD600 of 0.5, cultures were induced with […] IPTG and grown for a further 4 hr at 28° C. Cultures were centrifuged at 4000 g for 10 min to harvest the cells. Cell pellets from 1 L cultures were lysed in 10 mL of 1×PBS buffer containing 1 mM PMSF and protease-inhibitor cocktail by sonication. After centrifugation at 14500 g for 20 min, the supernatant was collected. […]
PKM activity was measured based on generation of pyruvate, which was oxidized by pyruvate oxidase to produce color (k=570 nm). […] After 10 ng PKM2-FBP complex was treated with 200-300 μM SNO-CoA for 10 min at room temperature, the activity of PKM2 was measured. […] Extracts were clarified by centrifugation (20,000 g, 4° C., 20 min, ×2), and protein concentration was determined by bicinchoninic acid assay. […]

recombinant PKLR = recombinant PKLR (Homo sapiens, UniProt P30613); test: Activity of recombinant PKLR after SNO-CoA treatment; assay type: biochemical; conditions: FIG. 8
recombinant PKM1 = recombinant PKM1 (Homo sapiens, UniProt P14618); test: Activity of recombinant PKM1 after SNO-CoA treatment; assay type: biochemical; conditions: FIG. 8
tetrameric PKM2-WT = target: T4, tetrameric PKM2-WT (Homo sapiens, UniProt P14618); test: PKM2 dimer and tetramer formation in vitro, PKM2-WT; assay type: biochemical; conditions: purified proteins, 200-300 μM SNO-CoA for 10 min; FIG. 3g
T4 construct: 6xHis (C); made in house; host or cells: E. coli BL21-CodonPlus
Experimental: Assay of PKM2 dimer and tetramer in vitro follows previous descriptions. In brief, after 40 ng PKM2-FBP complex was treated with 200-300 μM SNO-CoA for 10 min at room temperature, 5 μl fresh glutaraldehyde (50%) was added to a reaction mixture containing 100 mM HEPES (pH 7.5) for 5 min at 37° C. The cross-linking reaction was terminated by addition of 5 μl 1M Tris-HCL (PH 8.0). Assay of PKM2 dimer and tetramer in situ was carried out as described previously. DSS (disuccinimidyl suberate; Thermo Scientific) (final 500 μM) was added to cells for 30 min at room temperature to cross-link proteins. Cells were lysed in RIPA Buffer and protein concentration was determined by bicinchoninic acid assay. Equal amounts of protein were separated by 4-15% Criterion™ Precast Midi Protein Gel and monomer, dimer and tetramer forms of PKM2 were detected with PKM2 antibody.

SCoR−/− mice = test: Ascorbate-supplemented chow in SCoR−/− mice: ascorbate levels and I/R-induced AKI; assay type: in vivo; conditions: chow with 1% ascorbate for six weeks, FIGS. 7b-c
Experimental: AKI surgery was carried out as described herein. Mice of similar age (9-11 weeks) and body weight (male: 25-28 g; female: 22-25 g) were used for surgery. The mice were anesthetized with isoflurane (1-3%) in oxygen and then anesthesia was maintained with isoflurane (0.75-2.0%) and adjusted as needed. The fur in the surgical area was removed with clippers and the skin sterilized with 3 times alternating washes of betadine […] and alcohol. The mouse was placed on a thermostatic station during surgery. The skin and muscle were cut open along the back to expose both right and left kidneys. Gentle blunt dissection was performed through muscular layers to reveal the kidney and a Q-tip was used to mobilize and exteriorize the kidney. A 5-0 silk suture was used to clamp the pedicle to block the blood flow to the kidney to induce renal ischemia for 23 min in male mice or 50 min in female mice, then the sutures released to allow reperfusion. The identical steps were performed on the contra-lateral side. A silk suture was used to close the muscle layer of the incision followed by the closure of the skin wound with vicryl. […] Seram creatinine and BUN were determined after 24 hrs of reperfusion upon removal of the kidney (when larger volumes of blood can be collected). Seram creatinine and BUN were measured at University Hospital's Clinical Laboratories.

Chain of recombinant PKLR (P30613 whole entry, species assumed): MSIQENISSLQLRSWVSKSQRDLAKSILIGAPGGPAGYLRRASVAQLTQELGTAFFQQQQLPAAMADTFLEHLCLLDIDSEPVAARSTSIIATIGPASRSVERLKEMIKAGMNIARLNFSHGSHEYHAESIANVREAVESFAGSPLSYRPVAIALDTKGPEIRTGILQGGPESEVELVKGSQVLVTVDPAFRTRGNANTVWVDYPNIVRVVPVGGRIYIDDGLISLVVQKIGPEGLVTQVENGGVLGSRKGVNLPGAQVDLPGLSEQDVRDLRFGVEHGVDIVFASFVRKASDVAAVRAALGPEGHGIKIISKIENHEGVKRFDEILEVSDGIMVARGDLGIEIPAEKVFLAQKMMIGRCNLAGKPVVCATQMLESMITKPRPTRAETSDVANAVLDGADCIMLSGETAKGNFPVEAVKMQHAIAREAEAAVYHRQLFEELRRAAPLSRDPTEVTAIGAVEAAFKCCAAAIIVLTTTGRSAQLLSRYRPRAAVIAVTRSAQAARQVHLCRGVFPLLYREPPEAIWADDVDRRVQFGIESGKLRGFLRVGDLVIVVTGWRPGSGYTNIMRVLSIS
T1 sequence (P14618 2-531 C423A/C424A): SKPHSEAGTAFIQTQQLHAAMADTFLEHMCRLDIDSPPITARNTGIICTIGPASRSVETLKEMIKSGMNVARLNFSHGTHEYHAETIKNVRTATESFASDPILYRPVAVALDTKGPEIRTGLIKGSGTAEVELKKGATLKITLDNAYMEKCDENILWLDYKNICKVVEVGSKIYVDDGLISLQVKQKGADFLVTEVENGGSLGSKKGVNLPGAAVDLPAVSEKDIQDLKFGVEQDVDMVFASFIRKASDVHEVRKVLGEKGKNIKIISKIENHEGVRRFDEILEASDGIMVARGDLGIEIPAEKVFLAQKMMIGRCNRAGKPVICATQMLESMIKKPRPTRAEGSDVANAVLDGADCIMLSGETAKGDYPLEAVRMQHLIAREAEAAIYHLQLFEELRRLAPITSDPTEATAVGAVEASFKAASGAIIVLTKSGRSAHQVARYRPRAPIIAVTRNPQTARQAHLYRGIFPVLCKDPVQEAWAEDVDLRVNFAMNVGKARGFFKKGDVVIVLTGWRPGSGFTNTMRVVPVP
T3 sequence (P14618 2-531 C423A/C424A): as above
T4 sequence (P14618 whole entry, species assumed): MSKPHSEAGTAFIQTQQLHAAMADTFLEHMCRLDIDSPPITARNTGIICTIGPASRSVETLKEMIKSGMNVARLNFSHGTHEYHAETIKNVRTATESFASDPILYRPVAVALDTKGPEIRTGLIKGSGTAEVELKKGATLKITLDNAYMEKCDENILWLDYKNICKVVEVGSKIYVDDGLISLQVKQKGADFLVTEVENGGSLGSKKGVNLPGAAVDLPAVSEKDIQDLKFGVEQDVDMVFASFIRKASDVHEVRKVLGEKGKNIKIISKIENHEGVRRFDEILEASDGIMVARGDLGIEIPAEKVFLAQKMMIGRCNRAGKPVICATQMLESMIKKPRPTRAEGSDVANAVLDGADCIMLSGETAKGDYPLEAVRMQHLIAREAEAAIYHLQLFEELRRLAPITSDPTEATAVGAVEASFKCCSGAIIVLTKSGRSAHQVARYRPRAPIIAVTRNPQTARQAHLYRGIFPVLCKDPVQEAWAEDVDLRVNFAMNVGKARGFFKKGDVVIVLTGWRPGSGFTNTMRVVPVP
T2 sequence (P14618 whole entry, species assumed): as above
Chain of recombinant PKM1 (P14618 1-531 isoform P14618-2, species assumed): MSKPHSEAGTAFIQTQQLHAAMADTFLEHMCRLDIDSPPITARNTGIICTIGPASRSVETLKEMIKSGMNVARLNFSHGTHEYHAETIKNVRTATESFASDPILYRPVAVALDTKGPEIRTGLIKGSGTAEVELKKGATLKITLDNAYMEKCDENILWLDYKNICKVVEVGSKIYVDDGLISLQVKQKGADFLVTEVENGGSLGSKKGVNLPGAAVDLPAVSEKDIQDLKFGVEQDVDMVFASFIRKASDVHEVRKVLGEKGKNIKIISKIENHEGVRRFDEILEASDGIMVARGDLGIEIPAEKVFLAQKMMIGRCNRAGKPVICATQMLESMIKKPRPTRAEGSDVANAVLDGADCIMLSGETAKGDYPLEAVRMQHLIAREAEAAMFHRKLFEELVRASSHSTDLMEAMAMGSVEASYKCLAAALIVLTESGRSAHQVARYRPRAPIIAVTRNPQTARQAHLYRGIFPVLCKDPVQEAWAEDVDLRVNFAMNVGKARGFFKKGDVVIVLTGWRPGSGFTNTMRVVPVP

SMILES: NCCN(CCN)/[N+]([O-])=N/O [DETA-NO]
- activity of PKM2-C423/424A in HEK cells [1]: cannot be inhibited
- accumulation of PEP in Myc-PKM2-C423/424A cells [2]: not Myc-PKM2-C423/424A cells
- accumulation of PEP in Myc-PKM2-WT cells [2]: promoted the accumulation of PEP
- ADP/ATP ratio between Myc-PKM2-WT and Myc-PKM2-C423/424A cells [3]: no different
- accumulation of 6-phosphogluconate in Myc-PKM2-WT vs. Myc-PKM2-C423/424A cells [4]: promotes accumulation of 6-phosphogluconate

SMILES: CC(C)(COP(=O)(O)OP(=O)(O)OC[C@H]1O[C@@H](n2cnc3c(N)ncnc32)[C@H](O)[C@@H]1OP(=O)(O)O)[C@@H](O)C(=O)NCCC(=O)NCCSN=O [SNO-CoA, S-nitroso-CoA]
- activity of recombinant PKM2 after SNO-CoA treatment (recombinant PKM2): directly inhibited
- activity of PKM2-C423/424A after SNO-CoA treatment [5]: cannot be inhibited
- activity of recombinant PKLR after SNO-CoA treatment (recombinant PKLR): not other PK isoforms (PKM1 or PKLR), was directly inhibited
- activity of recombinant PKM1 after SNO-CoA treatment (recombinant PKM1): not other PK isoforms (PKM1 or PKLR), was directly inhibited
- formation of tetrameric PKM2-WT (tetrameric PKM2-WT): inhibited formation of tetrameric PKM2-WT

SMILES: O=C1O[C@H]([C@@H](O)CO)C(O)=C1O [ascorbate, ascorbic acid]
- AKI phenotype (serum creatinine and BUN) (SCoR−/− mice): no effect on the AKI phenotype
